# Experimental data: patent US20050132438A1, “Novel monocotylednous plant genes and uses thereof” (priority 2000, published 2005)
# Tested on: wheat NIM1 homologue mRNA transcripts
# Experiment: RNA gel blot of wheat RNA probed with the KL1/KL2 PCR product of the wheat NIM1 homologue
# Format: in vivo
# Conditions: polyA+ RNA from leaf tissue of young wheat plants, BTH-treated for 24 h
# From the text: The PCR product from wheat genomic DNA that is obtained with PCR primers KL1 and KL2 (SEQ ID NO:3 and SEQ ID NO:4, respectively) is used to probe gel blots of wheat RNA. […] The smaller transcript corresponds to the size detected in total RNA. […] The wheat “NIM loop”-described above is also used as a probe.
structure (smiles),measurement,value
"CSC(=O)c1cccc2nnsc12 [BTH, benzo(1,2,3)thiadiazole-7-carbothioic acid S-methyl ester]","abundance of the two NIM1 homologue transcripts, BTH-treated versus untreated plants",equal abundance
